Source: PMC8062632, “Structural studies of phosphorylation-dependent interactions between the V2R receptor and arrestin-2” (Nature Communications, 2021)

Tests used:
Format in all cases: cell-based
V2R-WT = test: FlAsH-BRET recruitment of c-Raf-1 to arrestin2; conditions: HEK293 cells, Argipressin 10 μM, 37 °C, 10 min
Procedure: (§1) The interaction between arrestin2 and c-Raf-1 was measured by the FlAsH-BRET method. […] Data are expressed as relative values of ΔBRET ratio with the mean ± SEM of three independent experiments (n = 3). […] Source data are provided in the Source. Data file.
(§2) After 24 h of transfection, the cells were detached and distributed into 96-well plates at a density of ~25,000 cells per well. After another 24 h incubation at 37 °C, the cells were labeled FlAsH-EDT2 for 40 min at 37 °C and washed twice with Tyrode’s buffer (140 mM NaCl, 2.7 mM KCl, 1 mM CaCl2, 12 mM NaHCO3, 5.6 mM D-glucose, 0.5 mM MgCl2, 0.37 mM NaH2PO4, and 25 mM HEPES, pH = 7.4) and stimulated with or without Argipressin (final concentration of 10 μM) at 37 °C for 10 min Luciferase substrate coelenterazine-h was added at a final concentration of 5 μM before light emissions were recorded using a Mithras LB940 microplate reader (Berthold Technologies) equipped with BRET filter sets. The BRET signal was determined by calculating the ratio of the light intensity emitted by YFP ([…]) over the light intensity emitted by Rluc ([…]). Source data are provided in a Source Data file.

V2R-1 (V2R-T347A) = test: FlAsH-BRET recruitment of c-Raf-1 to arrestin2; conditions: HEK293 cells; for ΔBRET ratio, c-Raf-1 recruitment to arrestin2: V2R-1, Argipressin 10 μM, 37 °C, 10 min
Procedure: as §1, §2

V2R-4 (V2R-T360A) [1] = test: FlAsH-BRET recruitment of c-Raf-1 to arrestin2; conditions: HEK293 cells, Argipressin 10 μM, 37 °C, 10 min
Procedure: as §1, §2

V2R-3 (V2R-S357A) = test: FlAsH-BRET recruitment of c-Raf-1 to arrestin2; conditions: HEK293 cells, Argipressin 10 μM, 37 °C, 10 min
Procedure: as §1, §2

[2] = test system: V2R-6-7 (V2R-S363A/S364A); test: FlAsH-BRET recruitment of c-Raf-1 to arrestin2; conditions: HEK293 cells; for ΔBRET ratio, c-Raf-1 recruitment to arrestin2: V2R-6-7, Argipressin 10 μM, 37 °C, 10 min
Procedure: as §1, §2

[3] = test system: V2R-S363A/S364A (V2Rpp-6-7 site); test: arrestin2 recruitment BRET assay (V2R-Rluc / arrestin2-YFP); conditions: HEK293 cells, 37 °C, 10 min, normalized to maximal response of V2R-WT
Procedure: (§3) After 24 h of transfection, the cells were detached and distributed into 96-well plates at a density of ~25,000 cells per well. After another 24 h incubation at 37 °C, the cells were washed twice with Tyrode’s buffer (140 mM NaCl, 2.7 mM KCl, 1 mM CaCl2, 12 mM NaHCO3, 5.6 mM D-glucose, 0.5 mM MgCl2, 0.37 mM NaH2PO4, and 25 mM HEPES, pH = 7.4) and incubated with vehicle or different concentration ligands (Argipressin) at 37 °C for 10 min Luciferase substrate coelenterazine-h was added at a final concentration of 5 μM before light emissions were recorded using a Mithras LB940 microplate reader (Berthold Technologies) equipped with BRET filter sets. The BRET signal was determined by calculating the ratio of the light intensity emitted by YFP (530/20 nm) over the light intensity emitted by Rluc (485/20 nm). Source data are provided in a Source Data file.
(§4) Supplementary Fig. 14. Surface expression and arrestin2 recruitment toward different V2R phosphor- […]
(§5) a-b). Elisa experiments to assay the expression levels of the wild type and indicated mutants of V2R or V2R-Rluc in HEK293 cells. Data from three independent experiments (n=3) are presented as mean ± SD. Statistical differences between WT and mutations were determined by two-sided one-way ANOVA with Tukey test. “ns”: the […]
(§6) c). The vasopressin-induced arrestin2 recruitment to different V2R phospho-deficient mutants were compared with V2R-WT, examined by BRET assay in a concentration dependent manner. n = 3 biologically independent replicates were examined for three independent experiments. Data (means ± SEM) of each mutant were normalized to […]
(§7) maximal response of V2R-WT. d). Statistical analysis of the Emax and pEC50 of vasopressin induced arrestin2 recruitment to V2R WT or V2R […]

[4] = test system: V2R-S357A mutant (V2Rpp-3 site); test: as above; conditions: HEK293 cells, 37 °C, 10 min, normalized to maximal response of V2R-WT
Procedure: as §3, §4, §5, §6, §7

V2R-T360A (V2Rpp-4 site) = test: as above; conditions: HEK293 cells, 37 °C, 10 min, normalized to maximal response of V2R-WT
Procedure: as §3, §4, §5, §6, §7

[5] = test system: wild-type V2R and V2R mutants; test: as above; conditions: HEK293 cells; different V2R mutants compared with wild-type V2R; 37 °C, 10 min
Procedure: as §3, §4, §5, §6, §7

V2R-4 (V2R-T360A) [6] = test: FlAsH-BRET recruitment of MEK1 to arrestin2; conditions: HEK293 cells; for ΔBRET ratio, MEK1 recruitment to arrestin2: V2R-4, Argipressin 10 μM, 37 °C, 10 min
Procedure: (§8) The blue ball: K357 site in arrestin2; Yellow pentagram: the position of FlAsH labeled in MEK1. […] Data are expressed as ΔBRET ratio relative values and represent the mean ± SEM of three independent experiments (n = 3). […] Source data are provided in the Source Data file.
(§9) 24 h after transfection, the cells were detached and distributed into 96-well plates at a density of ~25,000 cells per well. After another 24 h of incubation at 37 °C, the cells were labeled FlAsH-EDT2 for 40 min at 37 °C and washed twice with Tyrode’s buffer (140 mM NaCl, 2.7 mM KCl, 1 mM CaCl2, 12 mM NaHCO3, 5.6 mM D-glucose, 0.5 mM MgCl2, 0.37 mM NaH2PO4, and 25 mM HEPES, pH = 7.4) and stimulated with or without Argipressin (final concentration of 10 μM) at 37 °C for 10 min Luciferase substrate coelenterazine-h was added at a final concentration of 5 μM before light emissions were recorded using a Mithras LB940 microplate reader (Berthold Technologies) equipped with BRET filter sets. The BRET signal was determined by calculating the ratio of the light intensity emitted by YFP ([…]) over the light intensity emitted by Rluc ([…]). Source data are provided in a Source Data file.

[7] = test system: V2R-6-7 (V2R-S363A/S364A); test: FlAsH-BRET recruitment of MEK1 to arrestin2; conditions: HEK293 cells; for ΔBRET ratio, MEK1 recruitment to arrestin2: V2R-6-7, Argipressin 10 μM, 37 °C, 10 min
Procedure: as §8, §9

## vasopressin
V2R-WT; Data1
  ΔBRET ratio, c-Raf-1 recruitment to arrestin2: 0.014
V2R-WT; Data2
  ΔBRET ratio, c-Raf-1 recruitment to arrestin2: 0.012
V2R-WT; Data3
  ΔBRET ratio, c-Raf-1 recruitment to arrestin2: 0.015
V2R-1 (V2R-T347A); T347A mutant of the V2 receptor, in words
  c-Raf-1 recruited to arrestin, compared with wild-type V2 receptor: significantly less
V2R-1 (V2R-T347A); Data1
  ΔBRET ratio, c-Raf-1 recruitment to arrestin2: 0.006
V2R-1 (V2R-T347A); Data2
  ΔBRET ratio, c-Raf-1 recruitment to arrestin2: 0.002
V2R-1 (V2R-T347A); Data3
  ΔBRET ratio, c-Raf-1 recruitment to arrestin2: 0.005
V2R-4 (V2R-T360A) [1]; Data1
  ΔBRET ratio, c-Raf-1 recruitment to arrestin2: 0.001
V2R-4 (V2R-T360A) [1]; Data2
  ΔBRET ratio, c-Raf-1 recruitment to arrestin2: 0.001
V2R-4 (V2R-T360A) [1]; Data3
  ΔBRET ratio, c-Raf-1 recruitment to arrestin2: 0
V2R-3 (V2R-S357A); Data1
  ΔBRET ratio, c-Raf-1 recruitment to arrestin2: 0.005
V2R-3 (V2R-S357A); Data2
  ΔBRET ratio, c-Raf-1 recruitment to arrestin2: 0.005
V2R-3 (V2R-S357A); Data3
  ΔBRET ratio, c-Raf-1 recruitment to arrestin2: 0.006
[2]; S363A-S364A mutations in V2R, in words
  vasopressin-induced interaction between c-Raf-1 and arrestin2: abolished
[2]; Data1
  ΔBRET ratio, c-Raf-1 recruitment to arrestin2: 0
[2]; Data2
  ΔBRET ratio, c-Raf-1 recruitment to arrestin2: 0.001
[2]; Data3
  ΔBRET ratio, c-Raf-1 recruitment to arrestin2: 0
[3]
  Emax of arrestin2 recruitment compared to that of wild-type V2R: approximately 30%
[4]
  Emax of arrestin2 recruitment compared to that of wild-type V2R: 60%
V2R-T360A (V2Rpp-4 site)
  Emax of arrestin2 recruitment compared to that of wild-type V2R: approximately 30%
[5]
  EC50 of vasopressin-induced V2R-arrestin2 interaction: similar
V2R-4 (V2R-T360A) [6]; T360A mutation of V2R, in words
  MEK1-arrestin2 association in response to vasopressin stimulation: almost abolished
V2R-4 (V2R-T360A) [6]; Data1
  ΔBRET ratio, MEK1 recruitment to arrestin2: 0
V2R-4 (V2R-T360A) [6]; Data2
  ΔBRET ratio, MEK1 recruitment to arrestin2: -0.002
V2R-4 (V2R-T360A) [6]; Data3
  ΔBRET ratio, MEK1 recruitment to arrestin2: -0.003
[7]; S363A-S364A mutations of V2R, in words
  MEK1-arrestin2 association in response to vasopressin stimulation: almost abolished
[7]; Data1
  ΔBRET ratio, MEK1 recruitment to arrestin2: 0
[7]; Data2
  ΔBRET ratio, MEK1 recruitment to arrestin2: 0.001
[7]; Data3
  ΔBRET ratio, MEK1 recruitment to arrestin2: 0
